Experimental data: patent publication US20100143381A1, “LYSOPHOSPHATIDIC ACID RECEPTOR TARGETING FOR LUNG DISEASE” (priority 2007, published 2010)
Entries after “also recorded” stand apart in the source; their conditions may differ.

Tests used:
[1] = tested on: primary mouse lung fibroblasts; experiment: Fibroblast chemotaxis induced by BAL from mice on Day 5 post-bleomycin (modified Boyden chamber); assay type: cell-based
Protocol: Bronchoalveolar lavage (BAL) samples were obtained by lung lavage using two 0.5 ml aliquots of PBS. These samples were then provided for analysis of: i) chemoattractant activity, ii) LPA; iii) total protein; and iv) D-dimer concentrations. These BAL samples were centrifuged at 3000×g for 20 min at 4° C., and the supernatants transferred to siliconized low-binding eppendorf tubes (PGC Scientifics) for subsequent analysis.
(§1) Lungs from unchallenged C57BL/6, LPA1^−/− or littermate wild type mice were digested for 45 minutes at 37° C. in DMEM with 0.14 U/ml Liberase Blenzyme 3 (Roche), and 60 μg/ml DNAse 1 (Sigma), passed through a 70 μm filter, centrifuged at 540×g at 4° C. and plated in tissue culture flasks in DMEM with 15% (vol/vol) fetal bovine serum (FBS, Sigma). Cells were passaged when subconfluent following harvest with trypsin-EDTA (Cellgro®). To ensure that cultures contained almost purely fibroblasts, cells were used for experiments at passage 3 or higher.
After being serum-starved in DMEM without FBS overnight, subconfluent primary lung fibroblasts were harvested with non-enzymatic Cell Dissociation Solution (Sigma) to avoid possible proteolysis of surface chemoattractant receptors by trypsin. Harvested cells, at 5.0×10^5 cells/ml in 50 μl of DMEM, were placed in the top of a 48-well modified Boyden microchemotaxis chamber (NeuroProbe). Duplicate 30 μl aliquots of either: i) 18:1 LPA (Avanti Polar Lipids) or PDGF-BB (R&D Systems) in DMEM with 0.1% fatty acid-free bovine serum albumin (Sigma); or ii) BAL, or BAL fractions, diluted 1:4 in DMEM, were placed in the bottom wells of the chamber and separated from the cells by a 8-μm-pore, polyvinylpyrrolidone-free polycarbonate filter (Osmonics) that had been coated with fibronectin (Sigma). The apparatus was incubated at 37° C. and 5% CO2 for 3 hours, and cells migrating across the filter and adhering to the bottom side of the filter were stained with a commercially modified Wright's stain (Hema 3 stain set, Fisher Diagnostics) and counted, after cells remaining on the top side of the filter had been scraped off. […]

[2] = tested on: primary mouse lung fibroblasts; experiment: PDGF-induced fibroblast chemotaxis (specificity control); assay type: cell-based
Protocol: as §1
(§2) After being serum-starved in DMEM without FBS overnight, subconfluent primary lung fibroblasts were harvested with non-enzymatic Cell Dissociation Solution (Sigma) to avoid possible proteolysis of surface chemoattractant receptors by trypsin. Harvested cells, at 5.0×10^5 cells/ml in 50 μl of DMEM, were placed in the top of a 48-well modified Boyden microchemotaxis chamber (NeuroProbe). Duplicate 30 μl aliquots of either: i) 18:1 LPA (Avanti Polar Lipids) or PDGF-BB (R&D Systems) in DMEM with 0.1% fatty acid-free bovine serum albumin (Sigma); or ii) BAL, or BAL fractions, diluted 1:4 in DMEM, were placed in the bottom wells of the chamber and separated from the cells by a 8-μm-pore, polyvinylpyrrolidone-free polycarbonate filter (Osmonics) that had been coated with fibronectin (Sigma). The apparatus was incubated at 37° C. and 5% CO2 for 3 hours, and cells migrating across the filter and adhering to the bottom side of the filter were stained with a commercially modified Wright's stain (Hema 3 stain set, Fisher Diagnostics) and counted, after cells remaining on the top side of the filter had been scraped off. Data from these experiments is presented as chemotactic indices, i.e. the number of cells migrating in response to BAL divided by the number of cells migrating to media controls.

[3] = tested on: LPA1, LPA3, LPA2; conditions: literature (Ohta et al. 2003; Heise et al. 2001); cited from earlier work
[4] = tested on: human fetal lung fibroblasts (HFL1 cells); experiment: Fibroblast chemotaxis induced by BAL samples from human IPF patients; assay type: cell-based; conditions: 1 μM Ki16425; FIG. 8d
Protocol: After being serum-starved in DMEM without FBS overnight, subconfluent primary lung fibroblasts were harvested with non-enzymatic Cell Dissociation Solution (Sigma) to avoid possible proteolysis of surface chemoattractant receptors by trypsin. Harvested cells, at 5.0×10^5 cells/ml in 50 μl of DMEM, were placed in the top of a 48-well modified Boyden microchemotaxis chamber (NeuroProbe). […] The apparatus was incubated at 37° C. and 5% CO2 for 3 hours, and cells migrating across the filter and adhering to the bottom side of the filter were stained with a commercially modified Wright's stain (Hema 3 stain set, Fisher Diagnostics) and counted, after cells remaining on the top side of the filter had been scraped off. […]
BAL samples were recovered from IPF patients and normal controls following instillation of sterile 0.9% saline by flexible fiberoptic bronchoscopy, performed both at the Instituto Nacional de Enfermedades Respiratorias and the Massachusetts General Hospital (MGH), as previously described. […] Cells growing at passage 3 or higher were analyzed as primary human BAL fibroblasts.

[5] = tested on: sphingosine 1-phosphate receptors; conditions: literature (Ohta et al. 2003); cited from earlier work
[6] = tested on: primary mouse lung fibroblasts; experiment: LPA-induced fibroblast chemotaxis; assay type: cell-based; conditions: for effect of albumin on LPA-induced fibroblast chemotaxis: 0.1% fatty acid-free BSA, C57Bl/6 lung fibroblasts, FIG. 9b
Protocol: as §1, §2

[7] = tested on: LPA-activated chloride channel; conditions: elevated levels; human lung fibroblasts; literature (Yin et al. 2005); cited from earlier work

## Cc1noc(-c2ccc(CSCCC(=O)O)cc2)c1NC(=O)OC(C)c1ccccc1Cl (stereo not drawn) [Ki16425]
[1]; 1 μM Ki16425, C57BL fibroblasts, FIG. 5b
  effect on fibroblast chemotaxis induced by D5 post-bleomycin BAL: significantly inhibited
[2]; 1 μM Ki16425, 10^−8 or 10^−7 M PDGF, FIG. 5b
  effect on PDGF-induced fibroblast chemotaxis: not affected; also recorded: similar; also recorded: did not affect
[3]
  receptor subtype rank order of inhibition of LPA-induced responses: LPA1≧LPA3>>LPA2
[4]
  effect on chemotaxis of HFL1 cells to BAL samples from IPF patients: reduced chemotaxis; also recorded: significantly inhibited
[5]
  effects on cellular responses mediated by sphingosine 1-phosphate receptors: without appreciable effects

## pertussis toxin [PTX]
[1]; PTX-pretreatment of fibroblasts, D5 BAL, FIG. 1b
  effect of PTX pretreatment on BAL-induced fibroblast chemotaxis: inhibited chemotaxis; also recorded: completely inhibited
[2]; PTX-pretreatment of fibroblasts, FIG. 1b, 1i
  effect of PTX pretreatment on PDGF-induced fibroblast chemotaxis: not inhibited
[6]; PTX-pretreatment, LPA 10^−9-10^−7 M, FIG. 1i
  effect of PTX pretreatment on LPA-induced fibroblast chemotaxis: inhibited chemotaxis; also recorded: reduced

## CCCCCCCC/C=C\CCCCCCCC(=O)N[C@@H](COP(=O)(O)O)Cc1ccc(OCc2ccccc2)cc1 [VPC12249]
[1]; 100 μM VPC12249, C57BL/6 fibroblasts, FIG. 10
  effect on fibroblast chemotaxis induced by D5 post-bleomycin BAL: reduced chemotaxis; also recorded: significantly inhibited
[2]; 100 μM VPC12249, PDGF 10^−9 M, FIG. 10
  effect on PDGF-induced fibroblast chemotaxis: did not affect; also recorded: similar; also recorded: not affected
[3]
  receptor subtype rank order of inhibition of LPA-induced responses: LPA1≧LPA3>>LPA2

## dioctyl-glycerol pyrophosphate
[7]
  effect on activation of LPA-activated chloride channel: blocked

## lysophosphatidic acid [LPA]
[6]; LPA bound to albumin, FIG. 1h
  fibroblast chemotactic activity of LPA: chemotactic; also recorded: potent fibroblast chemoattractant

## fatty acid-free BSA: fatty acid-free bovine serum albumin (Sigma)
[6]
  effect of albumin on LPA-induced fibroblast chemotaxis: potentiated
[6]; listed as methanol extracted fatty acid-free albumin
  effect of albumin on LPA-induced fibroblast chemotaxis: significantly potentiated
